US9896441B2 (Lycera Corporation, priority 2014, dated 2018)

What was measured:
RORγ-LBD = target: T1, RORγ-LBD (Homo sapiens, UniProt P51449); assay: RORγ-Ligand Binding Domain (LBD) TR-FRET Assay; format: biochemical; conditions: for TR-FRET Assay Max Response: maximum response;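 on TR-FRET Assay Max Response: 665/615 nm signal ratio set to 100 without ursolic acid or test compound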
T1 construct: made in house; host or cells: SF9 cells (baculovirus); used as diluted lysate
T1 sequence (P51449 269-508 limits assumed): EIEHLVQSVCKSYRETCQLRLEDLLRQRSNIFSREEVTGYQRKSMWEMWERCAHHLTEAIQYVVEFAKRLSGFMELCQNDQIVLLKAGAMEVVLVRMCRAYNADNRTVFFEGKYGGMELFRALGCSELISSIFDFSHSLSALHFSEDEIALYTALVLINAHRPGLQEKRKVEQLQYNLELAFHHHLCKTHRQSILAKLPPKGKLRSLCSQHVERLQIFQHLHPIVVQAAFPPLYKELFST
In short: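 Compounds, diluted in DMSO and then in assay buffer (1% DMSO final), were combined with His-tagged RORγ-LBD lysate at roughly 3 nM final and a 200 nM biotinylated SRC1 LXXLL peptide. Ursolic acid was included at 2 μM final. Coactivator recruitment was detected by TR-FRET.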

Gal4-RORγ-LBD = target: T2, Gal4-RORγ-LBD (Homo sapiens, UniProt P51449); assay: Gal4-RORγ Luciferase Reporter Assay in HEK-293T Cells; format: cell-based; conditions: HEK-293 cells; for Gal4-RORγ Assay Max Response: maximum response
T2 construct: expressed in transfected cells
T2 sequence (P51449 269-508 limits assumed): T1 sequence (P51449 269-508 limits assumed)
In short: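 Max Response was taken as the upper plateau of a 4-parameter logistic fit of luciferase signal, normalized to 100 for wells without ursolic acid or compound. Transiently Gal4-RORγ-LBD/Gal4-luc transfected HEK-293 cells carrying […] ursolic acid were incubated with test compounds (0.2% DMSO) overnight at 37 °C and read with One-Glo.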

[1] = luciferase reporter, with ursolic acid
[2] = luciferase reporter, in presence of ursolic acid

Structure (SMILES): CC/C(=C\c1ccc2c(c1)N(S(=O)(=O)c1cccc(C(F)(F)F)c1)C[C@H](CCC(=O)OC)O2)c1ccccc1Cl [Example 35, Methyl (S,E)-3-(6-(2-(2-chlorophenyl)but-1-en-1-yl)-4-((3-(trifluoromethyl)phenyl)sulfonyl)-3,4-dihydro-2H-benzo[b][1,4]oxazin-2-yl)propanoate]
- EC50 (RORγ-LBD; RORγ-LBD TR-FRET): < 0.5 µM
- EC50 (Gal4-RORγ-LBD; [1]): 0.5 to 5 µM

Structure (SMILES): CCOc1ncc(C(F)(F)F)cc1S(=O)(=O)N1C[C@H](CCC(=O)OC)Oc2ccc(/C=C/c3c(F)cccc3Cl)cc21 [Example 89DV, methyl (S,E)-3-(6-(2-chloro-6-fluorostyryl)-4-((2-ethoxy-5-(trifluoromethyl)pyridin-3-yl)sulfonyl)-3,4-dihydro-2H-benzo[b][1,4]oxazin-2-yl)propanoate]
- EC50 (RORγ-LBD; RORγ-LBD TR-FRET): < 0.5 µM
- EC50 (Gal4-RORγ-LBD; [1]): 0.5 to 5 µM

Structure (SMILES): C/C(=C\c1ccc2c(c1)N(S(=O)(=O)c1cccc(C(F)(F)F)c1)C[C@H](CO)O2)c1c(F)cccc1Cl [Example 125, (R,E)-(6-(2-(2-Chloro-6-fluorophenyl)prop-1-en-1-yl)-4-((3-(trifluoromethyl)phenyl)sulfonyl)-3,4-dihydro-2-h-benzo[b][1,4]oxazin-2-yl)methanol]
- EC50 (RORγ-LBD; RORγ-LBD TR-FRET assay): < 0.5 µM
- TR-FRET Assay Max Response (RORγ-LBD; RORγ-LBD TR-FRET assay): *** (a value in the range of greater than 150 to 200)
- EC50 (Gal4-RORγ-LBD; [2]): < 0.5 µM
- Gal4-RORγ Assay Max Response (Gal4-RORγ-LBD; [2]): ** (a value in the range of greater than 90 to 150)

Structure (SMILES): O=C(O)CC[C@H]1CN(S(=O)(=O)c2cccc(OC(F)F)c2)c2cc(/C=C/c3c(Cl)cccc3Cl)ccc2O1 [Example 89CT, (S,E)-3-(6-(2,6-dichlorostyryl)-4-((3-(difluoromethoxy)phenyl)-sulfonyl)-3,4-dihydro-2H-benzo[b][1,4]oxazin-2-yl)propanoic acid]
- EC50 (RORγ-LBD; RORγ-LBD TR-FRET): < 0.5 µM
- EC50 (Gal4-RORγ-LBD; [1]): < 0.5 µM

Structure (SMILES): O=C(O)CC[C@H]1CN(S(=O)(=O)c2cccc(C(F)(F)F)c2)c2cc(/C=C/c3ncccc3Cl)ccc2O1 [Example 89BK, (S,E)-3-(6-(2-(3-chloropyridin-2-yl)vinyl)-4-((3-(trifluoromethyl)phenyl)sulfonyl)-3,4-dihydro-2H-benzo[b][1,4]oxazin-2-yl)propanoic acid]
- EC50 (RORγ-LBD; RORγ-LBD TR-FRET): < 0.5 µM
- EC50 (Gal4-RORγ-LBD; [1]): < 0.5 µM

Structure (SMILES): COC(=O)CC[C@H]1CN(S(=O)(=O)c2cccc(C(F)(F)F)c2)c2cc(/C=C(\C)c3c(F)cccc3Cl)c(F)cc2O1 [Example 41, (S,E)-Methyl 3-(6-(2-(2-chloro-6-fluorophenyl)prop-1-en-1-yl)-7-fluoro-4-((3-(trifluoromethyl)phenyl)sulfonyl)-3,4-dihydro-2H-benzo[b][1,4]oxazin-2-yl)propanoate]
- EC50 (RORγ-LBD; RORγ-LBD TR-FRET): < 0.5 µM
- EC50 (Gal4-RORγ-LBD; [1]): < 0.5 µM

Structure (SMILES): COC(=O)CC[C@H]1CN(S(=O)(=O)c2cccc(C(F)(F)F)c2)c2cc(/C=C/c3c(OC)cccc3C(F)(F)F)ccc2O1 [Example 89ES, methyl (S,E)-3-(6-(2-methoxy-6-(trifluoromethyl)styryl)-4-((3-(trifluoromethyl)phenyl)-sulfonyl)-3,4-dihydro-2H-benzo[b][1,4]oxazin-2-yl)propanoate]
- EC50 (RORγ-LBD; RORγ-LBD TR-FRET): < 0.5 µM
- EC50 (Gal4-RORγ-LBD; [1]): 0.5 to 5 µM

Structure (SMILES): CC(F)(F)c1cccc(S(=O)(=O)N2C[C@H](CCC(=O)O)Oc3ccc(/C=C/c4c(Cl)cccc4C(F)(F)F)cc32)c1 [Example 84, (S,E)-3-(6-(2-Chloro-6-(trifluoromethyl)styryl)-4-((3-(1,1-difluoroethyl)phenyl)sulfonyl)-3,4-dihydro-2H-benzo[b][1,4]oxazin-2-yl)propanoic acid]
- EC50 (RORγ-LBD; RORγ-LBD TR-FRET): < 0.5 µM
- EC50 (Gal4-RORγ-LBD; [1]): < 0.5 µM

Structure (SMILES): COc1cc(S(=O)(=O)N2C[C@H](CNC(=O)c3ccc(C(=O)O)cc3)Oc3ccc(/C=C(\C)c4c(F)cccc4Cl)cc32)ccc1F [Example 134, (S,E)-4-(((6-(2-(2-Chloro-6-fluorophenyl)prop-1-en-1-yl)-4-((4-fluoro-3-methoxyphenyl)sulfonyl)-3,4-dihydro-2H-benzo[b][1,4]oxazin-2-yl)methyl)carbamoyl)benzoic acid]
- EC50 (RORγ-LBD; RORγ-LBD TR-FRET assay): < 0.5 µM
- TR-FRET Assay Max Response (RORγ-LBD; RORγ-LBD TR-FRET assay): **** (a value greater than 200)
- EC50 (Gal4-RORγ-LBD; [2]): < 0.5 µM
- Gal4-RORγ Assay Max Response (Gal4-RORγ-LBD; [2]): *** (a value in the range of greater than 150 to 200)

Structure (SMILES): COC(=O)CC[C@H]1CN(S(=O)(=O)c2cccc(OC(F)F)c2)c2cc(/C=C/c3c(F)cccc3C(F)(F)F)ccc2O1 [Example 89AJ, (S,E)-methyl 3-(4-((3-(difluoromethoxy)phenyl)sulfonyl)-6-(2-fluoro-6-(trifluoromethyl)-styryl)-3,4-dihydro-2H-benzo[b][1,4]oxazin-2-yl)propanoate]
- EC50 (RORγ-LBD; RORγ-LBD TR-FRET): < 0.5 µM
- EC50 (Gal4-RORγ-LBD; [1]): 0.5 to 5 µM

Structure (SMILES): COC(=O)CC[C@H]1CN(S(=O)(=O)c2ccc(F)c(Cl)c2)c2cc(/C=C(\C)c3c(F)cccc3Cl)ccc2O1 [Example 86F, (S,E)-methyl 3-(4-((3-chloro-4-fluorophenyl)sulfonyl)-6-(2-(2-chloro-6-fluorophenyl)prop-1-en-1-yl)-3,4-dihydro-2H-benzo-[b][1,4]oxazin-2-yl)propanoate]
- EC50 (RORγ-LBD; RORγ-LBD TR-FRET): < 0.5 µM
- EC50 (Gal4-RORγ-LBD; [1]): < 0.5 µM

Structure (SMILES): CCOC(=O)C1CCN(CCC[C@H]2CN(S(=O)(=O)c3cccc(C(F)(F)F)c3)c3cc(/C=C(\C)c4c(F)cccc4Cl)ccc3O2)CC1 [Example 119E, ethyl (S,E)-1-(3-(6-(2-(2-chloro-6-fluorophenyl)prop-1-en-1-yl)-4-((3-(trifluoromethyl)phenyl)sulfonyl)-3,4-dihydro-2H-benzo[b][1,4]oxazin-2-yl)propyl)piperidine-4-carboxylate]
- EC50 (RORγ-LBD; RORγ-LBD TR-FRET assay): < 0.5 µM
- TR-FRET Assay Max Response (RORγ-LBD; RORγ-LBD TR-FRET assay): *** (a value in the range of greater than 150 to 200)
- EC50 (Gal4-RORγ-LBD; [2]): 0.5 to 5 µM
- Gal4-RORγ Assay Max Response (Gal4-RORγ-LBD; [2]): ** (a value in the range of greater than 90 to 150)

Structure (SMILES): C/C(=C\c1ccc2c(c1)N(S(=O)(=O)c1cccc(C(F)(F)F)c1)C[C@H](CCC(=O)O)O2)c1ccccc1C(F)(F)F [Example 86AG, (S,E)-3-(6-(2-(2-(trifluoromethyl)-phenyl)prop-1-en-1-yl)-4-((3-(trifluoromethyl)phenyl)sulfonyl)-3,4-dihydro-2H-benzo[b][1,4]-oxazin-2-yl)propanoic acid]
- EC50 (RORγ-LBD; RORγ-LBD TR-FRET): < 0.5 µM
- EC50 (Gal4-RORγ-LBD; [1]): < 0.5 µM

Structure (SMILES): COc1cc(S(=O)(=O)N2C[C@H](CCC(=O)O)Oc3ccc(/C=C(\C)C4CCCC4)cc32)ccc1F [Example 191A, (S,E)-3-(6-(2-cyclopentylprop-1-en-1-yl)-4-((4-fluoro-3-methoxyphenyl)sulfonyl)-3,4-dihydro-2H-benzo[b][1,4]-oxazin-2-yl)propanoic acid]
- EC50 (RORγ-LBD; RORγ-LBD TR-FRET assay): < 0.5 µM
- TR-FRET Assay Max Response (RORγ-LBD; RORγ-LBD TR-FRET assay): ** (a value in the range of greater than 90 to 150)
- EC50 (Gal4-RORγ-LBD; [2]): 0.5 to 5 µM
- Gal4-RORγ Assay Max Response (Gal4-RORγ-LBD; [2]): ** (a value in the range of greater than 90 to 150)

Structure (SMILES): N#Cc1cccnc1/C=C/c1ccc2c(c1)N(S(=O)(=O)c1cccc(C(F)(F)F)c1)C[C@H](CCC(=O)O)O2 [Example 89DL, (S,E)-3-(6-(2-(3-cyanopyridin-2-yl)vinyl)-4-((3-(trifluoromethyl)-phenyl)sulfonyl)-3,4-dihydro-2H-benzo[b][1,4]oxazin-2-yl)propanoic acid]
- EC50 (RORγ-LBD; RORγ-LBD TR-FRET): < 0.5 µM
- EC50 (Gal4-RORγ-LBD; [1]): 0.5 to 5 µM

Structure (SMILES): Cc1cc(O)cc(C)c1/C=C/c1ccc2c(c1)N(S(=O)(=O)c1cccc(C(F)(F)F)c1)C[C@H](CCC(=O)O)O2 [Example 89BG, (S,E)-3-(6-(4-hydroxy-2,6-dimethylstyryl)-4-((3-(trifluoromethyl)phenyl)sulfonyl)-3,4-dihydro-2H-benzo[b][1,4]oxazin-2-yl)propanoic acid]
- EC50 (RORγ-LBD; RORγ-LBD TR-FRET): < 0.5 µM
- EC50 (Gal4-RORγ-LBD; [1]): 0.5 to 5 µM

Structure (SMILES): CC/C(=C\c1ccc2c(c1)N(S(=O)(=O)c1cc(C(F)(F)F)cnc1OCCO)C[C@H](CCC(=O)OC)O2)C(C)C [Example 191F, methyl (S,E)-3-(6-(2-ethyl-3-methylbut-1-en-1-yl)-4-((2-(2-hydroxyethoxy)-5-(trifluoro-methyl)pyridin-3-yl)sulfonyl)-3,4-dihydro-2H-benzo[b][1,4]oxazin-2-yl)propanoate]
- EC50 (RORγ-LBD; with 2 μM ursolic acid (RORγ antagonist), highest test concentration 10 μM): < 0.5 µM
- EC50 (Gal4-RORγ-LBD; ursolic acid present, luciferase readout): 0.5 to 5 µM

Structure (SMILES): C/C(=C\c1ccc2c(c1)N(S(=O)(=O)c1cccc(C(F)(F)F)c1)C[C@@H](NS(C)(=O)=O)C2)c1c(F)cccc1Cl [Example 116I, (S,E)-N-(7-(2-(2-chloro-6-fluorophenyl)prop-1-en-1-yl)-1-((3-(trifluoromethyl)phenyl)-sulfonyl)-1,2,3,4-tetrahydroquinolin-3-yl)methanesulfonamide]
- EC50 (RORγ-LBD; RORγ-LBD TR-FRET assay): < 0.5 µM
- TR-FRET Assay Max Response (RORγ-LBD; RORγ-LBD TR-FRET assay): *** (a value in the range of greater than 150 to 200)
- EC50 (Gal4-RORγ-LBD; [2]): 0.5 to 5 µM
- Gal4-RORγ Assay Max Response (Gal4-RORγ-LBD; [2]): ** (a value in the range of greater than 90 to 150)

Structure (SMILES): C/C(=C\c1ccc2c(c1)N(S(=O)(=O)c1cccc(C(F)(F)F)c1)C[C@H](CCN1CCC[C@H]1C(=O)O)O2)c1c(F)cccc1Cl [Example 124, (2-((S)-6-((E)-2-(2-Chloro-6-fluorophenyl)prop-1-en-1-yl)-4-((3-(trifluoromethyl)phenyl)sulfonyl)-3,4-dihydro-2H-benzo[b][1,4]oxazin-2-yl)ethyl)-L-proline]
- EC50 (RORγ-LBD; RORγ-LBD TR-FRET assay): < 0.5 µM
- TR-FRET Assay Max Response (RORγ-LBD; RORγ-LBD TR-FRET assay): *** (a value in the range of greater than 150 to 200)
- EC50 (Gal4-RORγ-LBD; [2]): 0.5 to 5 µM
- Gal4-RORγ Assay Max Response (Gal4-RORγ-LBD; [2]): ** (a value in the range of greater than 90 to 150)
